Consider two sequences from paper PMC8704389, “New Insights into the Hypotensins from Tityus serrulatus Venom: Pro-Inflammatory and Vasopeptidases Modulation Activities” (Toxins, 2021).

“And” between values parts separate entries of the source, which are not always exact repeats. Equal values may be shown once. No end group written: not given here.

In one series the target is T1, ACE (Oryctolagus cuniculus, UniProt P12822).
T1 construct: Angiotensin Converting Enzyme (ACE) from rabbit lung; purchased Sigma-Aldrich; host or cells: rabbit lung tissue
T1 sequence (P12822 34-1310): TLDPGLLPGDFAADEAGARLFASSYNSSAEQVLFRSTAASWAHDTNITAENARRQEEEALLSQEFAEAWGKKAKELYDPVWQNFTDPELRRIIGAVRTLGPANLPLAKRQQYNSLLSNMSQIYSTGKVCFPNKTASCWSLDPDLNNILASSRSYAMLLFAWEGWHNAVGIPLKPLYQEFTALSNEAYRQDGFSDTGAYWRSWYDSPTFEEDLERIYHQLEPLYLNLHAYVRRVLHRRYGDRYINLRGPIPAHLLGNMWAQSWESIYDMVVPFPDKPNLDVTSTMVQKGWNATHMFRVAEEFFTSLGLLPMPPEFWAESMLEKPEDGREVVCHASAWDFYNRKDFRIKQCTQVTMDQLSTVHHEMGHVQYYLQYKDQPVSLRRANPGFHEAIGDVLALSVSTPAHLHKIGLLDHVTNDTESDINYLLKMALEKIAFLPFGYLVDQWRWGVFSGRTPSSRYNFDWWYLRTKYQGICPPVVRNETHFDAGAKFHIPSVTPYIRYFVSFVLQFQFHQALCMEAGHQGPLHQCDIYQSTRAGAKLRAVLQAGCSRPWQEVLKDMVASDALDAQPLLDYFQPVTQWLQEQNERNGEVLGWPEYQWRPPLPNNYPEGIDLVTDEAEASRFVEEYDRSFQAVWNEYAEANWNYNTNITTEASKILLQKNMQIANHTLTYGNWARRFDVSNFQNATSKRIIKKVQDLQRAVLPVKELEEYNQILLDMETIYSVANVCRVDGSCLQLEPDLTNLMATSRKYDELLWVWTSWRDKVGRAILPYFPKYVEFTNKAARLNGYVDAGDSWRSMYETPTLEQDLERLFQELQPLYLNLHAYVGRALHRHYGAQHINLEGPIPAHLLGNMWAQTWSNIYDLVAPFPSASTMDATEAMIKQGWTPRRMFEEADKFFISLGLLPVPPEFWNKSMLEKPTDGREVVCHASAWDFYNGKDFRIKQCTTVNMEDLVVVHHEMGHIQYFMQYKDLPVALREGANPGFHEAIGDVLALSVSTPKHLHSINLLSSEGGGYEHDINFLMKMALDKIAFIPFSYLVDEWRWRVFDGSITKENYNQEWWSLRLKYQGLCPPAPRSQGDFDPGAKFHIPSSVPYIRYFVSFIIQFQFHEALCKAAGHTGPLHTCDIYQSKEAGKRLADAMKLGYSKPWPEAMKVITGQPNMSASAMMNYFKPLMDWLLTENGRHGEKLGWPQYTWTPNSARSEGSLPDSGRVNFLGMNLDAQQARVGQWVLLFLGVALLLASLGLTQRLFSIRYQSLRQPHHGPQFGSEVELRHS
As to the kind of experiment: Modulation of ACE activity, FRET substrate Abz-FRK(Dnp)P-OH. The conditions noted are these: 10 µM peptide, 3.0 ng ACE, 10 µM Abz-FRK(Dnp)P-OH, Tris HCl 100 mM, NaCl 50 mM, ZnCl2 10 µM, pH 7.0, 37 °C, 15 min, fluorescence 320/420 nm, triplicate. It is filed as biochemical, rabbit. The protocol: The results were obtained by incubating the enzymes with their FRET substrates (10 µM) in a final volume of 100 µL. For the ACE assays, the used buffer was Tris HCl 100 mM, NaCl 50 mM and ZnCl2 10 µM, pH 7.0. For NEP, the assays were made in Tris HCl 50 mM, pH 7.5 buffer. All reactions occurred at 37 °C, in a Victor 3 fluorimeter (Perkin–Elmer) adjusted for excitation and emission readings at 320 and 420 nm, respectively, for 15 min (one reader per minute). Results were obtained in triplicate and analyzed on GraFit 5 software.
For ACE assays, 10 µM of each peptide was incubated with 3.0 ng of peptidase and 10 µM of Abz-FRK (Dnp) P-OH substrate, in Tris HCl 100 mM, NaCl 50 mM and ZnCl2 10 µM, pH 7.0 buffer. For NEP, 10 µM of TsHpt-I or -II was incubated with 1.5 ng of peptidase, 3.5 µM Abz-RGFK (Dnp)-OH in Tris HCl 50 mM, pH 7.5 buffer. All reactions occurred at 37 °C, in a final volume of 100 µL, in a Victor 3 fluorimeter (Perkin–Elmer, Waltham, MA, USA) adjusted for excitation and emission readings at 320 and 420 nm, respectively, for 15 min (one reader per minute). Results were obtained in triplicate and analyzed using GraFit 5 (Erithacus software, East Grinstead, West Sussex, UK).

In another series the test system is NEP. As to the kind of experiment: in vitro. It is filed as in vitro ADME. The conditions noted are these: human, isolated enzyme neprilysin; 30 µM peptide, NEP 1.5 ng, Tris HCl 50 mM, pH 7.5, 4 h, 37 °C, RP-HPLC C18, UV 214 nm; read-out: hydrolysis products after incubation with NEP. The protocol: Figure 1 Analysis of the susceptibility to hydrolysis of the hypotensins over the vasopeptidases NEP and ACE. Incubations were carried out in Tris HCl 100 mM, NaCl 50 mM and ZnCl2 10 µM, pH 7.0, for the ACE assays, and, for the NEP assays, in Tris HCl 50 mM, pH 7.5 buffer, for four hours at 37 °C. (A) TsHpt-I control (black line) and after incubation with NEP (red line). (B) TsHpt-II control (black line) and TsHpt-II incubated with NEP (red line). (C) TsHpt-I control (black line) and incubated with ACE (red line). (D) TsHpt-II control (black line) and after incubation with ACE (red line). The samples of negative and experimental controls (A) TsHpt-I and (B) TsHpt-II are shown on the left and right, respectively. The hydrolysis products were considered ≤5%. The gradient used was 20% to 60% solvent B in 20 min, and 60% to 100% solvent B in 5 min (flow 1 mL/min, absorbance at 214 nm). Restek Ultra C-18 5 µm column, 250 × 4.6 mm.
The synthetic peptides TsHpt-I and TsHpt-II (30 µM) were incubated with ACE (3.0 ng), in Tris HCl 100 mM, NaCl 50 mM and ZnCl2 10 µM, pH 7.0 buffer, and NEP (1.5 ng), in Tris HCl 50 mM, pH 7.5 buffer, at 37 °C for 4 h. Samples containing only the synthetic peptides were used as the negative control. After incubation, samples were analyzed by reverse phase chromatography on RP-HPLC (Shimadzu, Kyoto, Japan), using a Restek Ultra C-18 column (5 µm, 250 × 4.6 mm). […]

Consider AEIDFSGIPEDIIKEIKETNAKPPA [TsHpt-II], for which the “ACE Activation (%)” value at ACE was 46% and 44%. In the series with NEP, the metabolised at 4 h, 30 µM was no more than 5%.

Consider AEIDFSGIPEDIIKQIKETNAKPPA [TsHpt-I], for which the “ACE Activation (%)” value at ACE is 64%. For the same sequence, the metabolised at 4 h, 30 µM with NEP was no more than 5%.
